# Experimental data published in patent US20100331269A1, “TRITERPENES DERIVATIVES AND USES THEREOF AS ANTITUMOR AGENTS OR ANTI-INFLAMMATORY AGENTS” (priority 2006, published 2010).
# Assays:
# [1] = test system: Lewis lung carcinoma; assay: In vivo antitumoral activity against Lewis lung cancer-bearing mice; set-up: species or system C57BL/6 mouse; conditions: day 13
# Protocol: Cell lines and mice preparation: The Lewis lung carcinoma cell lines (#CRL-1642, lot # 4372266, ATCC) and the C57BL/6 mouse strain (Charles River Inc., St-Constant, Qc) were used. Cells were grown to 90% confluence in complete DMEM medium containing Earle's salts and L-glutamine (Mediatech Cellgro, Va.), 10% foetal bovine serum (Hyclone), vitamins (1×), penicillin (100 I.U./mL) and streptomycin (100 μg/mL), essential amino acids (1×) and sodium pyruvate (1×) (Mediatech Cellgro, Va.). Cells were then harvested with up and down only. Cells were counted using a hemacytometer and resuspended in DMEM medium without SVF. 100 μL of a solution containing 1×10^7 cells/mL was inoculated subcutaneously in the right flank of each 6 weeks old mouse on day zero.
# The experimental mice were weighed daily.
# Data analysis: In vivo antitumor activity was evaluated according to the parameters as follows (Miot-Noirault, E. et al. Invest. New Drugs 2004, 22, 369-378):
# (a) Calculated tumour weight (CTW): The CTW of each tumour was estimated from two-dimensional measurements performed once a day with a slide calliper, according to the formula: CTW (mg)=(L×W^2)/2 with L=length in mm and W=width in mm. Differences in CTW between treated and control groups (DMSO) were analyzed for significance using the U Wilcoxon-Mann-Whitney test and Student t-test. Values of p<0.05 were considered statistically significant.
# (b) Treated/Control value (T/C) and Tumour Growth Inhibition (TGI):The T/C was calculated as the ratio of the mean CTW of TW of drug-treated mice versus controls: T/C=(CTW of the drug-treated group on Day X/CTW of the control group on Day X)×100. TGI is 100−(T/C) value.
# [2] = test system: WS-1 human normal skin fibroblasts; assay: Cytotoxicity, resazurin metabolism assay, WS-1; type: cell-based; conditions: 48 h, mean ± SD
# Text: (§1) Human lung carcinoma (A-549), human colon adenocarcinoma (DLD-1), human normal fibroblasts (WS1), mice melanoma (B16-F1), Human glioma (U-251), Human hepatocellular carcinoma (HEP G2), Human prostate adenocarcinoma (PC-3), Human ovary teratocarcinoma metastatic (PA-1), Human breast adenocarcinona metastatic (MDA-MB-231), Human breast adenocarcinoma (MCF-7) and Human malignant melanoma (SK-MEL-2) cell lines were obtained from the American Type Culture Collection (ATCC). All cell lines were cultured in minimum essential medium containing Earle's salts and L-glutamine (Mediatech Cellgro, Va.), to which was added 10% fetal bovine serum (Hyclone), vitamins (1×), penicillin (100 I.U./mL) and streptomycin (100 μg/mL), essential amino acids (1×) and sodium pyruvate (1×) (Mediatech Cellgro, Va.). Cells were kept at 37° C. in a humidified environment containing 5% CO2.
# (§2) Exponentially growing cells were plated in 96-well microplates (Costar, Corning Inc.) at a density of 5×10^3 cells per well in 100 μL of culture medium and were allowed to adhere for 16 hours before treatment. Increasing concentrations of each compound in DMSO (Sigma-Aldrich) were then added (100 μL per well) and the cells were incubated for 48 h. […] Cytotoxicity was assessed using resazurin (O'Brien, J. et al., Eur. J. Biochem. 2000, 267, 5421-5426) on an automated 96-well Fluoroskan Ascent F1™ plate reader (Labsystems) using excitation and emission wavelengths of 530 nm and 590 nm, respectively. Fluorescence was proportional to the cellular metabolic activity in each well. Survival percentage was defined as the fluorescence in experimental wells compared to that in control wells after subtraction of blank values. Each experiment was carried out three times in triplicata. IC50 results were expressed as mean±standard deviation.
# (§3) The cytotoxicity of triterpenes (1-8) and corresponding glycosides (9-30) (Table 2 below) as well as of germanicane-type triterpenes and glycosides (31-44) (Table 3 below) was assessed towards human cancer (A-549, DLD-1), mouse melanoma (B16-F1) and human normal skin fibroblast (WS1) cell lines using the resazurin reduction test (RTT test) as previously described (O'Brien, J. et al., Eur. J. Biochem. 2000, 267, 5421-5426). Measurements of fluorescence were carried out after 48 continuous hours of contact between compounds and cells. Results presented in Tables 2 and 3 below express the concentration inhibiting 50% of the cell growth (IC50). Known for its activity against A-549, betulinic acid (3) was used as a positive control in this experimentation. […] The cytotoxic activity of some of these compounds was also assessed using the Hoechst DNA assay (Table 4 below).
# [3] = test system: L1210 murine lymphocytic leukemia; conditions: 200 mg/kg; cited from earlier work
# [4] = test system: DLD-1 cells; assay: Cytotoxicity, Hoechst DNA assay, DLD-1; type: cell-based, human; conditions: ± SD
# Text: as §1, §3
# [5] = test system: DLD-1 human colorectal adenocarcinoma cells; assay: Cytotoxicity, resazurin metabolism assay, DLD-1; type: cell-based; conditions: 48 h, mean ± SD
# Text: as §1, §2, §3
# [6] = test system: B16-F1 cells; assay: Cytotoxicity, Hoechst DNA assay, B16-F1; type: cell-based, mouse; conditions: ± SD
# Text: as §1, §3
# [7] = test system: WS-1 cells; assay: Cytotoxicity, Hoechst DNA assay, WS-1; type: cell-based, human; conditions: ± SD
# Text: as §1, §3
# [8] = test system: A-549 human lung carcinoma cells; assay: Cytotoxicity, resazurin metabolism assay, A-549; type: cell-based; conditions: 48 h, mean ± SD
# Text: as §1, §2, §3
# [9] = test system: Walker 256 murine carcinosarcoma; conditions: cited from earlier work
# [10] = test system: B16-F1 mouse melanoma cells; assay: Cytotoxicity, resazurin metabolism assay, B16-F1; type: cell-based; conditions: 48 h, mean ± SD
# Text: as §1, §2, §3
# [11] = test system: A-549 cells; assay: Cytotoxicity, Hoechst DNA assay, A-549; type: cell-based, human; conditions: ± SD
# Text: as §1, §3
# [12] = test system: PA-1 human ovary teratocarcinoma cells; assay: Cytotoxicity, resazurin metabolism assay, PA-1; type: cell-based; conditions: mean ± SD
# Text: as §1, §2
# (§4) Compounds presented in Table 5 below were also tested in the following tumour cell lines: U-251 (Human glioma), HEP G2 (Human hepatocellular carcinoma), PC-3 (Human prostate adenocarcinoma), PA-1 (Human ovary teratocarcinoma metastatic), MDA-MB-231 (Human breast adenocarcinona metastatic), MCF-7 (Human breast adenocarcinoma) and SK-MEL-2 (Human malignant melanoma).
# [13] = test system: PC-3 human prostate adenocarcinoma cells; assay: Cytotoxicity, resazurin metabolism assay, PC-3; type: cell-based; conditions: mean ± SD
# Text: as §1, §2, §4
# [14] = test system: MCF-7 human breast adenocarcinoma cells; assay: Cytotoxicity, resazurin metabolism assay, MCF-7; type: cell-based; conditions: mean ± SD
# Text: as §1, §2, §4
# [15] = test system: Hep G2 human hepatocellular carcinoma cells; assay: Cytotoxicity, resazurin metabolism assay, Hep G2; type: cell-based; conditions: mean ± SD
# Text: as §1, §2, §4
# [16] = test system: SK-Mel-2 human melanoma cells; assay: Cytotoxicity, resazurin metabolism assay, SK-Mel-2; type: cell-based; conditions: mean ± SD
# Text: as §1, §2, §4
# [17] = test system: MDA-MB-231 human breast adenocarcinoma cells; assay: Cytotoxicity, resazurin metabolism assay, MDA-MB-231; type: cell-based; conditions: mean ± SD
# Text: as §1, §2, §4
# [18] = test system: U-251 human glioma cells; assay: Cytotoxicity, resazurin metabolism assay, U-251; type: cell-based; conditions: mean ± SD
# Text: as §1, §2, §4
# [19] = test system: NO production in lipopolysaccharide (LPS) stimulated cells; conditions: read-out: IC50 (NO production); cells stimulated with 100 ug/ml LPS, 24 h, Griess reaction
# Protocol: Exponentially growing cells were plated in 24-well microplates (BD Falcon) at a density of 2×10^5 cells per well in 400 μl of culture medium and were allowed to adhere overnight. Cells were then treated or not with positive control N(G)-nitro-L-arginine methyl ester (L-NAME), or increasing concentrations of methanol extracts dissolved in the appropriate solvents, and incubated at 37° C., 5% CO2 for 24 h. The final concentration of solvent in the culture medium was maintained at 0.5% (volume/volume) to avoid solvent toxicity. Cells were then stimulated with 100 ug/ml lipopolysaccharide (LPS). After 24 h, cell-free supernatants were collected and stored at −80° C. until NO determination using the Griess reaction (Green et al. 1990) with minor modifications. Briefly, 100 μl aliquots of cell supernatants were incubated with 50 μl of 1% sulfanilamide and 50 μl of 0.1% N-1-naphtylethylenediamine dihydrochloride in 2.5% H3PO4 at room temperature for 20 min. Absorbance at 540 nm was then measured using an automated 96-well Varioskan Ascent™ plate reader (Thermo Electron) and the presence of nitrite was quantified by comparison with an NaNO2 standard curve.
Structure (SMILES),IC50 [2],IC50 [4],IC50 [5],IC50 [6],IC50 [7],IC50 [8],IC50 [10],IC50 [11],IC50 [12],IC50 [13],IC50 [14],IC50 [15],IC50 [16],IC50 [17],IC50 [18],other results
"C=C(C)[C@@H]1CC[C@]2(C(=O)O)CC[C@]3(C)[C@H](CC[C@@H]4[C@@]5(C)CC[C@H](O)C(C)(C)[C@@H]5CC[C@]43C)[C@@H]12 [Compound 3, Betulinic acid, reference compound]",12 ± 1 µM,12 ± 1 µM,15 ± 0.3 µM,18 ± 2 µM,14 ± 2 µM,10.3 ± 0.4 µM,16.1 ± 0.5 µM,8 ± 1 µM,–,–,–,–,–,–,–,CTW (calculated tumour weight) ([1]; 50 mg/kg IP every 3-4 days): 294 ± 69 mg; T/C (Treated/Control) ([1]; 50 mg/kg IP): 90%; TGI (Tumour Growth Inhibition) ([1]; 50 mg/kg IP): 10%; CTW (calculated tumour weight) ([1]; 100 mg/kg IP every 3-4 days): 264 ± 58 mg; T/C (Treated/Control) ([1]; 100 mg/kg IP): 81%; TGI (Tumour Growth Inhibition) ([1]; 100 mg/kg IP): 19%; CTW (calculated tumour weight) ([1]; 200 mg/kg IP every 3-4 days): 265 ± 58 mg; T/C (Treated/Control) ([1]; 200 mg/kg IP): 81%; TGI (Tumour Growth Inhibition) ([1]; 200 mg/kg IP): 19%; Activity in the L1210 murine lymphocytic leukemia model [3]: inactive; Activity in the Walker 256 model (subsequent report) ([9]; 400 mg/kg): inactive; Activity against the Walker 256 murine carcinosarcoma tumor system ([9]; dose levels of 300 and 500 mg/kg body weight): dose-dependent activity
"C=C(C)[C@@H]1CC[C@]2(C)CC[C@]3(C)[C@H](CC[C@@H]4[C@@]5(C)CC[C@H](O[C@H]6OC[C@@H](O)[C@@H](O)[C@@H]6O)C(C)(C)[C@@H]5CC[C@]43C)[C@@H]12 [Compound 11, 3-O-α-D-Arabinopyranoside of Lupeol]",15.8 ± 0.8 µM,69 ± 7 µM,50 ± 6 µM,28 ± 1 µM,24 ± 1 µM,28 ± 2 µM,27 ± 2 µM,34 ± 2 µM,9.8 ± 0.6 µM,26 ± 3 µM,23 ± 2 µM,10 ± 0.9 µM,10 ± 0.8 µM,11 ± 1 µM,10.1 ± 0.2 µM,–
"C=C(C)C1CCC2(COC3OCC(O)C(O)C3O)CCC3(C)C(CCC4C5(C)CCC(O)C(C)(C)C5CCC43C)C12 [Compound 17, 28-O-α-D-Arabinopyranoside of Betulin]",> 175 µM,> 194 µM,> 175 µM,> 194 µM,> 194 µM,> 175 µM,> 175 µM,> 194 µM,–,–,–,–,–,–,–,IC50 [19]: 25 ± 1 µM
"C=C(C)[C@@H]1CC[C@]2(C(=O)OC)CC[C@]3(C)[C@H](CC[C@@H]4[C@@]5(C)CC[C@H](O[C@@H]6O[C@H](CO)[C@@H](O)[C@H](O)[C@H]6O)C(C)(C)[C@@H]5CC[C@]43C)[C@@H]12 [Compound 18, 3-O-β-D-Glucopyranoside of Methyl Betulinate]",9.3 ± 0.2 µM,4 ± 0.2 µM,3.93 ± 0.09 µM,7.2 ± 0.8 µM,12 ± 2 µM,8.4 ± 0.3 µM,7.1 ± 0.3 µM,9.3 ± 0.6 µM,60 ± 20 µM,130 ± 30 µM,110 ± 6 µM,79 ± 5 µM,103 ± 4 µM,101.7 ± 0.1 µM,84 ± 2 µM,–
"C=C(C)[C@@H]1CC[C@]2(C(=O)OC)CC[C@]3(C)[C@H](CC[C@@H]4[C@@]5(C)CC[C@H](O[C@H]6OC[C@@H](O)[C@@H](O)[C@@H]6O)C(C)(C)[C@@H]5CC[C@]43C)[C@@H]12 [Compound 20, 3-O-α-D-Arabinopyranoside of Methyl Betulinate]",12.5 ± 0.4 µM,16 ± 0.6 µM,18 ± 1 µM,12.6 ± 0.5 µM,13.2 ± 0.7 µM,13.5 ± 0.6 µM,13.3 ± 0.4 µM,11.7 ± 0.8 µM,16 ± 4 µM,17 ± 1 µM,21 ± 3 µM,15 ± 2 µM,16 ± 1 µM,16.3 ± 0.8 µM,15 ± 1 µM,–
"C=C(C)[C@@H]1CC[C@]2(C(=O)O)CC[C@]3(C)[C@H](CC[C@@H]4[C@@]5(C)CC[C@H](O[C@H]6OC[C@@H](O)[C@@H](O)[C@@H]6O)C(C)(C)[C@@H]5CC[C@]43C)[C@@H]12 [Compound 23, 3-O-α-D-Arabinopyranoside of Betulinic Acid]",47 ± 5 µM,10 ± 1 µM,17 ± 3 µM,10.2 ± 0.6 µM,32 ± 2 µM,10 ± 2 µM,11 ± 1 µM,5.7 ± 0.8 µM,20 ± 2 µM,110 ± 10 µM,45 ± 9 µM,66 ± 9 µM,62 ± 7 µM,57 ± 6 µM,70 ± 10 µM,–
